Source: PMC4412152, “Human olfactory receptor responses to odorants” (Scientific Data, 2015)
Where a chain is given by its changes, count along the chain named.

Experiments:
Assay in all cases: CRE-luciferase cAMP reporter (Dual-Glo), Hana3A cells
Format in all cases: cell-based
OR2J3 = molecular target: T1, OR2J3 (Homo sapiens, UniProt O76001)
T1 construct: full-length ORF with N-terminal Rho tag, pCI, Hana3A cells with RTP1S; four clones with the same label
T1 sequence (O76001 1-311): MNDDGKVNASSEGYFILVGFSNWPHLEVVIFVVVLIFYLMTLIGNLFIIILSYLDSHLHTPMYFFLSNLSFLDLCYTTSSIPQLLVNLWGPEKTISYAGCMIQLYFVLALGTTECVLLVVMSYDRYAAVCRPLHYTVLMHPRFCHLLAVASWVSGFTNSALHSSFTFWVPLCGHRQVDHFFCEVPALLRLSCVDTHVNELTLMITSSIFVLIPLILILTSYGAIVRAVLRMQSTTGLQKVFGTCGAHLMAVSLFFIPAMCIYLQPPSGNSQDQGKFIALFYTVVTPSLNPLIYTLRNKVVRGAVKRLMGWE
From the text: CRE-luciferase cAMP reporter (Dual-Glo), Hana3A cells on OR2J3

OR4F17 = molecular target: T2, OR4F17 (Homo sapiens, UniProt Q8NGA8)
T2 construct: full-length ORF with N-terminal Rho tag, pCI, Hana3A cells with RTP1S
T2 sequence (Q8NGA8 1-305): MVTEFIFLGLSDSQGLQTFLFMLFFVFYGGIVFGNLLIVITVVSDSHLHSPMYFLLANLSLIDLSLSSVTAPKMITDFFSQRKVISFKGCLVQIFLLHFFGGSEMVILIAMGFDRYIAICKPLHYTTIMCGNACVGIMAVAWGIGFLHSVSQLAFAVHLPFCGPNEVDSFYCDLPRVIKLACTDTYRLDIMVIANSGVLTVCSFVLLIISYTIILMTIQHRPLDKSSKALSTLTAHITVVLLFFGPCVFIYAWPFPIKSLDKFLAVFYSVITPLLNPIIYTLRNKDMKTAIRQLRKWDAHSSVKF
From the text: CRE-luciferase cAMP reporter (Dual-Glo), Hana3A cells on OR4F17

OR2T1 [1] = molecular target: T3, OR2T1 (Homo sapiens, UniProt A0A126GWK9, I76V)
T3 construct: full-length ORF with N-terminal Rho tag, pCI, Hana3A cells with RTP1S; two clones with the same label
T3 sequence (A0A126GWK9 1-318 I76V): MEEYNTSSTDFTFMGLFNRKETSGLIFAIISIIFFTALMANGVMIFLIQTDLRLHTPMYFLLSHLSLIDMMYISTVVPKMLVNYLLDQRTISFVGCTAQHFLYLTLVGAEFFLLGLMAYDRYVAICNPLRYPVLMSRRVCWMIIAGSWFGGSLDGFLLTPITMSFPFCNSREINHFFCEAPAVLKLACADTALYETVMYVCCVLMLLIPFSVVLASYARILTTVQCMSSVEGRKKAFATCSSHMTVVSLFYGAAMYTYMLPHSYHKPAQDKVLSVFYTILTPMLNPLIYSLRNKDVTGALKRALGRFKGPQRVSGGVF
From the text: (§1) CRE-luciferase cAMP reporter (Dual-Glo), Hana3A cells on OR2T1

OR2T1 [2] = molecular target: T4, OR2T1 (Homo sapiens, UniProt A0A126GWK9)
T4 construct: full-length ORF with N-terminal Rho tag, pCI, Hana3A cells with RTP1S; two clones with the same label
T4 sequence (A0A126GWK9 1-318): T3 sequence (A0A126GWK9 1-318 I76V) with V76I
From the text: as §1

OR56A4 = molecular target: T5, OR56A4 (Homo sapiens, UniProt Q8NGH8)
T5 construct: full-length ORF with N-terminal Rho tag, pCI, Hana3A cells with RTP1S
T5 sequence (Q8NGH8 1-313): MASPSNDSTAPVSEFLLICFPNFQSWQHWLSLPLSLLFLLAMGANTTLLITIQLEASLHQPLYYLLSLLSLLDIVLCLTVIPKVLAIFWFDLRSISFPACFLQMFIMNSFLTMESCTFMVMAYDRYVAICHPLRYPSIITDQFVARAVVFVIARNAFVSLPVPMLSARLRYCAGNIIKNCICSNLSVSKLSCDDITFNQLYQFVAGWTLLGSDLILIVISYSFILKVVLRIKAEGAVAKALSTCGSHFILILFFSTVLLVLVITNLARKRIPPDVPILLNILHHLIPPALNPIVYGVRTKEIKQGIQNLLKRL
From the text: CRE-luciferase cAMP reporter (Dual-Glo), Hana3A cells on OR56A4

OR10G4 = molecular target: T6, OR10G4 (Homo sapiens, UniProt Q8NGN3, K295Q)
T6 construct: full-length ORF with N-terminal Rho tag, pCI, Hana3A cells with RTP1S; two clones with the same label
T6 sequence (Q8NGN3 1-311 K295Q): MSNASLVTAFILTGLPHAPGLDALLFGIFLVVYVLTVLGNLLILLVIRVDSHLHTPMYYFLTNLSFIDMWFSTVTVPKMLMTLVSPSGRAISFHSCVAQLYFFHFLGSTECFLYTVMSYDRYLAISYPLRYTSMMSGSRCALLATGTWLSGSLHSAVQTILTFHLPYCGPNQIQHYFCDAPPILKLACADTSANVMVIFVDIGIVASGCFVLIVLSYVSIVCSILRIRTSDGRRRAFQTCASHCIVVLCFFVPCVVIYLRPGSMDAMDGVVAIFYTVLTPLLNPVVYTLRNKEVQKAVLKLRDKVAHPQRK
From the text: CRE-luciferase cAMP reporter (Dual-Glo), Hana3A cells on OR10G4

OR8D1 = molecular target: T7, OR8D1 (Homo sapiens, UniProt Q8WZ84); settings: agonist; rounded to whole log unit
T7 construct: full-length ORF with N-terminal Rho tag, pCI, Hana3A cells with RTP1S
T7 sequence (Q8WZ84 1-308): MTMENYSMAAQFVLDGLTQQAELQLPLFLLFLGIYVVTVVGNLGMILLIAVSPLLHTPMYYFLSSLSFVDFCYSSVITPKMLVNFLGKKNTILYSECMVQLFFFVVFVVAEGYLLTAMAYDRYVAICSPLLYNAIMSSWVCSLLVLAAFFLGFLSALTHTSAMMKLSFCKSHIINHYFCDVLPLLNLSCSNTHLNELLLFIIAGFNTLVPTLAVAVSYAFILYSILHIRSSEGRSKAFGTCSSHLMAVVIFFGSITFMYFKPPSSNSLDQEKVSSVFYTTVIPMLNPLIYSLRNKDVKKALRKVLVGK
From the text: CRE-luciferase cAMP reporter (Dual-Glo), Hana3A cells on OR8D1

CCCCCOC(C)=O [compound 1078, n-amyl acetate]
EC50 (OR2J3): 1 µM

C[C@]12CCC(=O)C[C@@H]1CC[C@@H]1[C@@H]2CC[C@]2(C)C=CC[C@@H]12 [compound 1290, 5α-androst-16-en-3-one]
EC50 (OR4F17): 1000 µM

CCCC(=O)O [compound 1295, butyric acid]
EC50 (OR2T1 [1]): 100 µM | EC50 (OR2T1 [2]): 100 µM

CC/C=C\CCO [compound 1300, cis-3-hexen-1-ol]
EC50 (OR2J3): 10 µM

CC(=O)OC/C=C(\C)CCC=C(C)C [compound 1316, geranyl acetate]
EC50 (OR2J3): 1000 µM

CCCCCCCCCCC=O [compound 1345, undecanal]
EC50 (OR56A4): 0.1 µM

COc1cc(C=O)ccc1O [compound 1346, vanillin]
EC50 (OR10G4): 10 µM

caramel furanone [compound 1396]
EC50 (OR8D1): −5 log10 M
